Experimental data reported in paper PMC5218480 (PLoS ONE, 2017).

System: MV-4-11 cells
Test: Gene expression microarray analysis (Affymetrix PrimeView) and GSEA
Assay type: cell-based, human
Design: RFU PODN (11730768_x_at) / Fold change /veh PODN (11730768_x_at) / RFU LINC00158 (11744669_a_at) / Fold change /veh LINC00158 (11744669_a_at) / RFU DUSP10 (11751237_a_at) / Fold change /veh DUSP10 (11751237_a_at) / RFU ID3 (11757404_x_at) / Fold change /veh ID3 (11757404_x_at) / RFU PLEKHG5 (11737974_s_at) / Fold change /veh PLEKHG5 (11737974_s_at) / RFU LRRC4B (11730491_at) / Fold change /veh LRRC4B (11730491_at) / RFU GIMAP4 (11747438_a_at) / Fold change /veh GIMAP4 (11747438_a_at) / RFU KRT8 (11758183_x_at) / Fold change /veh KRT8 (11758183_x_at) / RFU CNN1 (11734310_a_at) / Fold change /veh CNN1 (11734310_a_at) / RFU VPS37D (11726825_at) / Fold change /veh VPS37D (11726825_at) / RFU C10orf10 (11716522_x_at) / Fold change /veh C10orf10 (11716522_x_at) / RFU KIR2DL2 /// KIR2DL4 /// KIR2DL5A /// KIR2DL5B /// KIR2DS1 /// KIR2DS2 /// KIR2DS3 /// KIR2DS4 /// KIR3DL3 /// KIR3DL3 /// KIR3DS1 (11738374_at) / Fold change /veh KIR2DL2 /// KIR2DL4 /// KIR2DL5A /// KIR2DL5B /// KIR2DS1 /// KIR2DS2 /// KIR2DS3 /// KIR2DS4 /// KIR3DL3 /// KIR3DL3 /// KIR3DS1 (11738374_at) / RFU C1QL1 (11718748_at) / Fold change /veh C1QL1 (11718748_at) / RFU TMPRSS4 (11747572_a_at) / Fold change /veh TMPRSS4 (11747572_a_at) / RFU HAMP (11756126_x_at) / Fold change /veh HAMP (11756126_x_at) / RFU RNFT2 (11725882_a_at) / Fold change /veh RNFT2 (11725882_a_at) / RFU NR4A2 (11747474_a_at) / Fold change /veh NR4A2 (11747474_a_at) / RFU ABCC12 (11746883_a_at) / Fold change /veh ABCC12 (11746883_a_at) / RFU TMEM136 (11760407_x_at) / Fold change /veh TMEM136 (11760407_x_at) / RFU CLDN22 /// WWC2 (11732394_at) / Fold change /veh CLDN22 /// WWC2 (11732394_at) / RFU HLA-DPB1 (11760878_x_at) / Fold change /veh HLA-DPB1 (11760878_x_at) / RFU SPINT1 (11716480_a_at) / Fold change /veh SPINT1 (11716480_a_at) / RFU GAP43 (11754022_s_at) / Fold change /veh GAP43 (11754022_s_at) / RFU A4GNT (11735810_at) / Fold change /veh A4GNT (11735810_at) / RFU PRB3 (11715151_x_at) / Fold change /veh PRB3 (11715151_x_at) / RFU TUBB4B (11761932_at) / Fold change /veh TUBB4B (11761932_at) / RFU CAPN14 (11732068_a_at) / Fold change /veh CAPN14 (11732068_a_at) / RFU TMCC2 (11721928_a_at) / Fold change /veh TMCC2 (11721928_a_at) / RFU IRGQ (11745062_a_at) / Fold change /veh IRGQ (11745062_a_at) / RFU FAM174B (11720279_a_at) / Fold change /veh FAM174B (11720279_a_at) / RFU TMPRSS4 (11748680_a_at) / Fold change /veh TMPRSS4 (11748680_a_at) / RFU FAM212B (11763350_a_at) / Fold change /veh FAM212B (11763350_a_at) / RFU PLEKHG5 (11743358_a_at) / Fold change /veh PLEKHG5 (11743358_a_at) / RFU ZSCAN30 (11745921_a_at) / Fold change /veh ZSCAN30 (11745921_a_at) / RFU CMKLR1 (11741424_a_at) / Fold change /veh CMKLR1 (11741424_a_at) / RFU LOC101060620 /// MAPK8IP1 (11723275_at) / Fold change /veh LOC101060620 /// MAPK8IP1 (11723275_at) / RFU SPTSSB (11747773_x_at) / Fold change /veh SPTSSB (11747773_x_at) / RFU PRSS12 (11739890_at) / Fold change /veh PRSS12 (11739890_at) / RFU BIN1 (11741810_x_at) / Fold change /veh BIN1 (11741810_x_at) / RFU WNT11 (11732464_a_at) / Fold change /veh WNT11 (11732464_a_at) / RFU C10orf10 (11716521_a_at) / Fold change /veh C10orf10 (11716521_a_at) / RFU C5orf56 (11738089_at) / Fold change /veh C5orf56 (11738089_at) / RFU CYB561 (11721691_x_at) / Fold change /veh CYB561 (11721691_x_at) / RFU ANKRD19P (11752326_a_at) / Fold change /veh ANKRD19P (11752326_a_at) / RFU OR2T12 /// OR2T33 /// OR2T8 (11738714_s_at) / Fold change /veh OR2T12 /// OR2T33 /// OR2T8 (11738714_s_at) / RFU VCAN (11748164_a_at) / Fold change /veh VCAN (11748164_a_at) / RFU JSRP1 (11732532_at) / Fold change /veh JSRP1 (11732532_at) / RFU KRTAP10-11 (11738290_x_at) / Fold change /veh KRTAP10-11 (11738290_x_at) / RFU MYO3A (11730013_a_at) / Fold change /veh MYO3A (11730013_a_at) / RFU EBF3 (11725865_a_at) / Fold change /veh EBF3 (11725865_a_at) / RFU CAMK2N1 (11719241_x_at) / Fold change /veh CAMK2N1 (11719241_x_at) / RFU C5orf56 (11738088_a_at) / Fold change /veh C5orf56 (11738088_a_at) / RFU OLFML3 (11715873_a_at) / Fold change /veh OLFML3 (11715873_a_at) / RFU LOC100653217 /// NTM (11731650_a_at) / Fold change /veh LOC100653217 /// NTM (11731650_a_at) / RFU MAPK11 (11762145_a_at) / Fold change /veh MAPK11 (11762145_a_at) / RFU FIZ1 (11724087_x_at) / Fold change /veh FIZ1 (11724087_x_at) / RFU OASL (11726364_x_at) / Fold change /veh OASL (11726364_x_at) / RFU SOX15 (11748057_x_at) / Fold change /veh SOX15 (11748057_x_at) / RFU CD79A (11719716_a_at) / Fold change /veh CD79A (11719716_a_at) / RFU HIST1H1D (11736915_at) / Fold change /veh HIST1H1D (11736915_at) / RFU CASKIN2 (11723855_a_at) / Fold change /veh CASKIN2 (11723855_a_at) / RFU LOC730098 (11760151_x_at) / Fold change /veh LOC730098 (11760151_x_at) / RFU OR4N2 (11742367_at) / Fold change /veh OR4N2 (11742367_at) / RFU PRRT2 (11749266_a_at) / Fold change /veh PRRT2 (11749266_a_at) / RFU SNX32 (11753110_a_at) / Fold change /veh SNX32 (11753110_a_at) / RFU CDHR5 (11726645_a_at) / Fold change /veh CDHR5 (11726645_a_at) / RFU RCAN1 (11760418_a_at) / Fold change /veh RCAN1 (11760418_a_at) / RFU FAM167A (11723789_a_at) / Fold change /veh FAM167A (11723789_a_at) / RFU FAM26E (11764081_at) / Fold change /veh FAM26E (11764081_at) / RFU ISYNA1 (11749810_s_at) / Fold change /veh ISYNA1 (11749810_s_at) / RFU ACY1 (11761880_at) / Fold change /veh ACY1 (11761880_at) / RFU 11764098_at / Fold change /veh 11764098_at / RFU SAMD14 (11745864_x_at) / Fold change /veh SAMD14 (11745864_x_at) / RFU NPB (11741838_a_at) / Fold change /veh NPB (11741838_a_at) / RFU TMPRSS6 (11731388_a_at) / Fold change /veh TMPRSS6 (11731388_a_at) / RFU KRTAP10-2 (11738614_at) / Fold change /veh KRTAP10-2 (11738614_at) / RFU ARHGAP8 /// PRR5-ARHGAP8 (11727945_x_at) / Fold change /veh ARHGAP8 /// PRR5-ARHGAP8 (11727945_x_at) / RFU KRTAP5-7 /// NADSYN1 (11734609_at) / Fold change /veh KRTAP5-7 /// NADSYN1 (11734609_at) / RFU RASL12 (11751679_a_at) / Fold change /veh RASL12 (11751679_a_at) / RFU CDKN2B (11736163_a_at) / Fold change /veh CDKN2B (11736163_a_at) / RFU PRF1 (11729649_at) / Fold change /veh PRF1 (11729649_at) / RFU, ZNF638 /// ZNF638-IT1 / Fold change vs veh, ZNF638 /// ZNF638-IT1 / RFU, PANK3 / Fold change vs veh, PANK3 / RFU, SH3YL1 / Fold change vs veh, SH3YL1 / RFU, ZEB2 / Fold change vs veh, ZEB2 / RFU, NRIP1 / Fold change vs veh, NRIP1 / RFU, PTTG1IP / Fold change vs veh, PTTG1IP / RFU, CAPN2 / Fold change vs veh, CAPN2 / RFU, MED14 / Fold change vs veh, MED14 / RFU, SNORA58 / Fold change vs veh, SNORA58 / RFU, C1orf63 / Fold change vs veh, C1orf63 / RFU, LRRFIP1 / Fold change vs veh, LRRFIP1 / RFU, NDUFAF7 / Fold change vs veh, NDUFAF7 / RFU, SLC12A2 / Fold change vs veh, SLC12A2 / RFU, IBTK / Fold change vs veh, IBTK / RFU, ESF1 / Fold change vs veh, ESF1 / Fold change vs veh, TMEM50B / RFU, TAOK1 / Fold change vs veh, TAOK1 / RFU, ACBD3 / Fold change vs veh, ACBD3 / RFU, TMA16 / Fold change vs veh, TMA16 / RFU, RWDD3 / Fold change vs veh, RWDD3 / RFU, BCAT1 / Fold change vs veh, BCAT1 / RFU, EDEM3 / Fold change vs veh, EDEM3 / RFU, TMEM33 / Fold change vs veh, TMEM33 / RFU, WDR75 / Fold change vs veh, WDR75 / RFU, AHCTF1 / Fold change vs veh, AHCTF1 / RFU, TFRC / Fold change vs veh, TFRC / RFU, ZDHHC17 / Fold change vs veh, ZDHHC17 / RFU, NOM1 / Fold change vs veh, NOM1 / RFU, ARL8B / Fold change vs veh, ARL8B / RFU, ZBTB11 / Fold change vs veh, ZBTB11 / RFU, TAMM41 / Fold change vs veh, TAMM41 / RFU, KIAA1704 /// LOC100996395 / Fold change vs veh, KIAA1704 /// LOC100996395 / RFU, ING1 / Fold change vs veh, ING1 / RFU, TRMT61B / Fold change vs veh, TRMT61B / RFU, FUBP3 / Fold change vs veh, FUBP3 / RFU, TP53 / Fold change vs veh, TP53 / RFU, TNKS2 / Fold change vs veh, TNKS2 / RFU, ZFP14 / Fold change vs veh, ZFP14 / RFU, ACTR2 / Fold change vs veh, ACTR2 / RFU, PPP3R1 / Fold change vs veh, PPP3R1 / RFU, PIK3R1 / Fold change vs veh, PIK3R1 / RFU, HNRNPA1 / Fold change vs veh, HNRNPA1 / RFU, RNF170 / Fold change vs veh, RNF170 / RFU, ZNF28 / Fold change vs veh, ZNF28 / RFU, RNGTT / Fold change vs veh, RNGTT / RFU, OGT / Fold change vs veh, OGT / RFU, BRD1 / Fold change vs veh, BRD1 / RFU, MARS / Fold change vs veh, MARS / RFU, ZNF655 / Fold change vs veh, ZNF655 / RFU, FAHD1 / Fold change vs veh, FAHD1 / RFU, BDP1 / Fold change vs veh, BDP1 / RFU, LRRCC1 / Fold change vs veh, LRRCC1 / RFU, ARID1A / Fold change vs veh, ARID1A / RFU, ZNF146 / Fold change vs veh, ZNF146 / RFU, ZNF330 / Fold change vs veh, ZNF330 / RFU, GPN3 / Fold change vs veh, GPN3 / RFU, C9orf123 / Fold change vs veh, C9orf123 / RFU, N4BP2L2 / Fold change vs veh, N4BP2L2 / RFU, ARFIP1 / Fold change vs veh, ARFIP1 / RFU, FAM179B / Fold change vs veh, FAM179B / RFU, BCL10 / Fold change vs veh, BCL10 / RFU, UHRF1BP1L / Fold change vs veh, UHRF1BP1L / RFU, BET1 / Fold change vs veh, BET1 / RFU, CNOT2 / Fold change vs veh, CNOT2 / RFU, ZNF268 / Fold change vs veh, ZNF268 / Fold change vs veh, ZNF507 / RFU, DGCR2 / Fold change vs veh, DGCR2 / RFU, WDSUB1 / Fold change vs veh, WDSUB1 / Fold change vs veh, HSP90B1 /// MIR3652 / RFU, ADSS / Fold change vs veh, ADSS / RFU, GK / Fold change vs veh, GK / RFU, ZNF148 / Fold change vs veh, ZNF148 / RFU, TAF9 / Fold change vs veh, TAF9 / RFU, SLC1A5 / Fold change vs veh, SLC1A5 / RFU, SLMO2 / Fold change vs veh, SLMO2 / RFU, ABCC4 / Fold change vs veh, ABCC4 / RFU, LOC101060439 /// RAP1B / Fold change vs veh, LOC101060439 /// RAP1B / RFU, RFX7 / Fold change vs veh, RFX7 / RFU, GTPBP10 / Fold change vs veh, GTPBP10 / RFU, CNEP1R1 / Fold change vs veh, CNEP1R1 / RFU, BIVM-ERCC5 /// ERCC5 / Fold change vs veh, BIVM-ERCC5 /// ERCC5 / RFU, ILF3 / Fold change vs veh, ILF3 / RFU 11762660_at / Fold change /veh 11762660_at / RFU VCAN (11757783_s_at) / Fold change /veh VCAN (11757783_s_at) / RFU DDX43 (11728927_at) / Fold change /veh DDX43 (11728927_at) / RFU KRT8 (11758188_x_at) / Fold change /veh KRT8 (11758188_x_at) / RFU NKD1 (11759106_at) / Fold change /veh NKD1 (11759106_at) / RFU SRD5A1 (11742802_a_at) / Fold change /veh SRD5A1 (11742802_a_at) / RFU TPSAB1 /// TPSB2 (11721975_s_at) / Fold change /veh TPSAB1 /// TPSB2 (11721975_s_at) / RFU GSTM3 (11746129_a_at) / Fold change /veh GSTM3 (11746129_a_at) / RFU IL23R (11737362_x_at) / Fold change /veh IL23R (11737362_x_at) / RFU TMEM51 (11727254_a_at) / Fold change /veh TMEM51 (11727254_a_at) / RFU PIWIL2 (11732686_x_at) / Fold change /veh PIWIL2 (11732686_x_at) / RFU ORM1 (11744905_x_at) / Fold change /veh ORM1 (11744905_x_at) / RFU CCDC152 (11743942_at) / Fold change /veh CCDC152 (11743942_at) / RFU ECM1 (11717891_a_at) / Fold change /veh ECM1 (11717891_a_at) / RFU IL23R (11748794_a_at) / Fold change /veh IL23R (11748794_a_at) / RFU TNFAIP8L3 (11732012_x_at) / Fold change /veh TNFAIP8L3 (11732012_x_at) / RFU MBOAT4 (11741988_at) / Fold change /veh MBOAT4 (11741988_at) / RFU 11764193_at / Fold change /veh 11764193_at / RFU TMEM53 (11763286_at) / Fold change /veh TMEM53 (11763286_at) / RFU MAGEB2 (11727129_at) / Fold change /veh MAGEB2 (11727129_at) / RFU TMEM200A (11744735_a_at) / Fold change /veh TMEM200A (11744735_a_at) / RFU CCDC152 (11751479_a_at) / Fold change /veh CCDC152 (11751479_a_at) / RFU FAM211A (11726209_a_at) / Fold change /veh FAM211A (11726209_a_at) / RFU RGS16 (11746705_a_at) / Fold change /veh RGS16 (11746705_a_at) / RFU VCAN (11755009_s_at) / Fold change /veh VCAN (11755009_s_at) / RFU RHOB (11743442_s_at) / Fold change /veh RHOB (11743442_s_at) / RFU RGS16 (11720943_a_at) / Fold change /veh RGS16 (11720943_a_at) / RFU RGS16 (11720944_at) / Fold change /veh RGS16 (11720944_at) / RFU, VPS4B / Fold change vs veh, VPS4B / RFU, CREB1 / Fold change vs veh, CREB1 / RFU, DNAJC13 / Fold change vs veh, DNAJC13 / RFU, GNAQ / Fold change vs veh, GNAQ / RFU, CDK5R1 / Fold change vs veh, CDK5R1 / RFU, ZRANB3 / Fold change vs veh, ZRANB3 / RFU, CUL4A / Fold change vs veh, CUL4A / RFU, CCNY / Fold change vs veh, CCNY / RFU, UFL1 / Fold change vs veh, UFL1 / RFU, COG3 / Fold change vs veh, COG3 / RFU, DIAPH2 / Fold change vs veh, DIAPH2 / RFU, SKA2 / Fold change vs veh, SKA2 / RFU, AFF3 / Fold change vs veh, AFF3 / RFU, LMF1 / Fold change vs veh, LMF1 / RFU, IPO11 / Fold change vs veh, IPO11 / RFU, DFFB / Fold change vs veh, DFFB / RFU, FOXP1 / Fold change vs veh, FOXP1 / RFU, CARD8 / Fold change vs veh, CARD8 / RFU, STRN3 / Fold change vs veh, STRN3 / RFU, ADK / Fold change vs veh, ADK / RFU, RASSF2 / Fold change vs veh, RASSF2 / RFU, WIPF1 / Fold change vs veh, WIPF1 / RFU, LARP1B / Fold change vs veh, LARP1B / RFU, RASA1 / Fold change vs veh, RASA1 / RFU, RB1 / Fold change vs veh, RB1 / RFU, PPFIA1 / Fold change vs veh, PPFIA1 / RFU, MAT2A / Fold change vs veh, MAT2A / RFU, CCT5 / Fold change vs veh, CCT5 / RFU, WDR92 / Fold change vs veh, WDR92 / RFU, CUX1 / Fold change vs veh, CUX1 / RFU, TTC7A / Fold change vs veh, TTC7A / RFU, TMEM135 / Fold change vs veh, TMEM135 / RFU, DEPTOR / Fold change vs veh, DEPTOR / RFU, CPM / Fold change vs veh, CPM / RFU, DNAJB6 / Fold change vs veh, DNAJB6 / RFU, CACNA2D3 / Fold change vs veh, CACNA2D3 / RFU, DTX4 / Fold change vs veh, DTX4 / RFU, TFCP2 / Fold change vs veh, TFCP2 / RFU, GMCL1 /// GMCL1P1 / Fold change vs veh, GMCL1 /// GMCL1P1 / RFU, AEBP2 / Fold change vs veh, AEBP2 / RFU, SNHG1 /// SNORD22 /// SNORD25 /// SNORD26 /// SNORD27 /// SNORD28 /// SNORD29 /// SNORD31 / Fold change vs veh, SNHG1 /// SNORD22 /// SNORD25 /// SNORD26 /// SNORD27 /// SNORD28 /// SNORD29 /// SNORD31 / Fold change (Aza/veh), C12orf56 (ProbeSet 11735607_a_at) / Fold change (ACY-1035/veh), C12orf56 (ProbeSet 11735607_a_at) / Fold change (Aza/veh), FGFR1OP (ProbeSet 11751329_s_at) / Fold change (ACY-1035/veh), FGFR1OP (ProbeSet 11751329_s_at) / Fold change (Aza/veh), VPS36 (ProbeSet 11739960_a_at) / Fold change (ACY-1035/veh), VPS36 (ProbeSet 11739960_a_at) / RFU SYPL1 (11715823_x_at) / Fold change /veh SYPL1 (11715823_x_at) / RFU IGFBP7 (11715501_s_at) / Fold change /veh IGFBP7 (11715501_s_at) / RFU REEP3 (11722064_at) / Fold change /veh REEP3 (11722064_at) / RFU IGLL1 (11728026_x_at) / Fold change /veh IGLL1 (11728026_x_at): dose or concentration left out as unconfirmed
Settings: gene FGFR1OP; ACY-1035 vs DMSO; LIST F

## Nc1ccc(-c2cccs2)cc1NC(=O)c1ccc2c(c1)cc(C1CC1)n2CCN1CCOCC1 [ACY-1035]
  Fold change (ACY-1035/veh), FGFR1OP (ProbeSet 11751329_s_at): 0.57
